According to patent US20060020042A1, “Memantine for the treatment of mild and mild to moderate Alzheimer's disease” (Forest Laboratories, Inc., priority 2004, published 2006):

Key:
[1] = test system: outpatients with mild-to-moderate Alzheimer's disease; assay: NPI in randomized, double-blind, placebo-controlled study; assay type: in vivo, human; details: for NPI total Difference (memantine minus placebo, LS mean): Week 24, ITT, 20 mg/day
Description: In the study of the present invention, there were approximately 400 patients enrolled across 42 centers. Evaluation of primary efficacy was achieved by Alzheimer's Disease Assessment Scale-cognitive subscale (ADAS-cog) and the Clinician's Interview-Based Impression of Change including caregiver information (CIBIC-plus). Secondary efficacy was determined using Alzheimer's disease Cooperative Study-Activities of Daily Living (ADCS-ADL) and Neuropsychiatric Inventory (NPI) criteria. The NPI is a validated scale that assesses behavioral disturbances in patients with dementia (Cummings et al., Neurology. 1994; 44(12):2308-14). It provides both a total score (sum of 12 domain scores) as well as scores for each subscales (e.g., delusions, hallucinations, agitation/aggression, depression/dysphoria, anxiety, disinhibition, elation/euphoria, apathy/indifference, irritability/lability, aberrant motor activity). For each subscale, both the frequency and the severity of each behavior is measured. The NPI total score ranges from 0 (higher functioning status) to 144 (lower functioning status). The NPI is based upon responses from the caregiver. The NPI was administered at Baseline and the end of Weeks 12 and 24 (or upon early termination). The study consisted of 1-2 weeks of single-blind placebo treatment followed by 24 weeks of double-blind treatment. Results were evaluated over seven clinical visits; at initial screening, baseline, and the end of weeks 4, 8, 12, 18 and 24. This study was conducted as a fixed-dose study. All patients assigned to the memantine group received an initial dose of 5 mg per day; the dose was titrated in 5 mg weekly increments to a final dose of 20 mg/day (administered as two 5 mg tablets twice a day). Study drug was provided as blister packs containing masked study medication such that placebo and memantine tablets were visually identical, and all patients received four tablets of study medication daily (in combinations of memantine 5 mg tablets and matching placebo tablets). […] Descriptive statistics were calculated by visit. […]

[2] = cited from earlier work
[3] = test system: outpatients with mild-to-moderate Alzheimer's disease; assay: CIBIC-plus in randomized, double-blind, placebo-controlled study; assay type: in vivo, human; details: for CIBIC+ Non-Responder, number of patients / CIBIC+ Responder (ratings 1-4), number of patients / CIBIC+ Difference (memantine minus placebo, mean): Week 24, ITT; for CIBIC+ Difference (memantine minus placebo, mean): 20 mg/day
Description: The present invention is based on results from a randomized, double-blind, placebo-controlled, multi-center, parallel-group study comparing memantine to placebo in outpatients diagnosed with probable AD according to […] criteria. Severity of mild to moderate was established using the Mini-Mental State Examination (MMSE) score (≧10 and ≦22; 0 is the lowest score and 30 is the highest score). In the study of the present invention, there were approximately 400 patients enrolled across 42 centers. Evaluation of primary efficacy was achieved by Alzheimer's Disease Assessment Scale-cognitive subscale (ADAS-cog) and the Clinician's Interview-Based Impression of Change including caregiver information (CIBIC-plus). Secondary efficacy was determined using Alzheimer's disease Cooperative Study-Activities of Daily Living (ADCS-ADL) and Neuropsychiatric Inventory (NPI) criteria. The CIBIC-Plus is a global rating that was derived through an independent, comprehensive interview with the patient and caregiver by an experienced rater/clinician who was barred from knowledge of all other psychometric test scores (after Baseline visit) conducted as part of this protocol and who is not otherwise familiar with the patient. Scores 1-3 indicate improvement; Score 4 indicates no change (as compared to baseline); Scores 5-7 indicate worsening. The CIBIC rater assessed disease severity at Baseline. Using the results from Baseline for reference, the rater then interviewed the patient and caregiver at the end of Weeks 4, 8, 12, 18 and 24 (or upon early termination), to obtain an “Impression of Change” rating. The format for this scale was derived from the Alzheimer's Disease Cooperative Study-Clinician's Global Impression of Change scale (ADCS-CGIC) (Schneider, L. et al, Alzheimer Dis Assoc Disord. 1997; 11 Suppl 2:S22-32). The CIBIC-plus was administered at each clinic visit starting with the Baseline visit. A “responder” is defined as a patient for whom the change from baseline (Visit 2) to Week 24 in ADAS-cog is less than or equal to -4. […] Results were evaluated over seven clinical visits; at initial screening, baseline, and the end of weeks 4, 8, 12, 18 and 24. The population of patients who received at least one dose of double-blind memantine, and completed at least one post-baseline efficacy evaluation of either the ADAS-cog or the CIBIC-plus is designated the “intent-to-treat” (ITT) population. The population of randomized patients who received at least one dose of double-blind study medication is designated the “safety population”. The randomized population designates all patients randomized into the study. This study was conducted as a fixed-dose study. All patients assigned to the memantine group received an initial dose of 5 mg per day; the dose was titrated in 5 mg weekly increments to a final dose of 20 mg/day (administered as two 5 mg tablets twice a day). Study drug was provided as blister packs containing masked study medication such that placebo and memantine tablets were visually identical, and all patients received four tablets of study medication daily (in combinations of memantine 5 mg tablets and matching placebo tablets). Transient dose adjustments were permitted between weeks 3 and 8 for patients experiencing dose-limiting adverse events. However, all patients were required to receive the target dose of 20 mg/day by the end of week 8. Patients not able to tolerate the target dose by week 8 were discontinued from the study. The CIBIC-plus rating was analyzed using the CMH test, controlling for study center ([…]). Descriptive statistics were calculated by visit.

[4] = LOCF, ITT, of 196 patients randomized to memantine

SMILES: CC12CC3CC(C)(C1)CC(N)(C3)C2 [Memantine, 1-amino-3,5-dimethyladamantane]
- individual NPI criteria significantly better than in the placebo-treated group ([1]; LOCF, week 24): three
- NPI total Difference (memantine minus placebo, LS mean) ([1]; LOCF analysis, p=0.011): −3.5
- NPI total Difference (memantine minus placebo, LS mean) ([1]; OC analysis, p=0.143): −2.1
- solubility in aqueous media [2]: highly soluble
- CIBIC-plus marked improvement, number of patients [3, 4]: 9 patients
- CIBIC-plus marked worsening, number of patients [3, 4]: 1 patients
- CIBIC-plus moderate improvement, number of patients [3, 4]: 27 patients
- CIBIC-plus moderate worsening, number of patients [3, 4]: 18 patients
- CIBIC-plus marked worsening, number of patients ([3]; OC analysis): 1 patients
- CIBIC-plus minimal improvement, number of patients ([3]; OC analysis): 24 patients
- CIBIC-plus moderate improvement, number of patients ([3]; OC analysis): 8 patients
- CIBIC-plus moderate worsening, number of patients ([3]; OC analysis): 17 patients
- CIBIC+ Non-Responder, number of patients ([3]; LOCF analysis): 64 patients
- CIBIC+ Responder (ratings 1-4), number of patients ([3]; LOCF analysis): 132 patients
- CIBIC+ Difference (memantine minus placebo, mean) ([3]; LOCF analysis, p=0.004): −0.32
- CIBIC+ Non-Responder, number of patients ([3]; LOCF analysis, listed as Mem): 97/64 patients
- CIBIC+ Responder (ratings 1-4), number of patients ([3]; LOCF analysis, listed as Mem): 100/132 patients
- CIBIC+ Non-Responder, number of patients ([3]; OC analysis): 56 patients
- CIBIC+ Responder (ratings 1-4), number of patients ([3]; OC analysis): 108 patients
- CIBIC+ Difference (memantine minus placebo, mean) ([3]; OC analysis, p=0.030): −0.26
- CIBIC+ Non-Responder, number of patients ([3]; OC analysis, listed as Mem): 81/56 patients
- CIBIC+ Responder (ratings 1-4), number of patients ([3]; OC analysis, listed as Mem): 85/108 patients
- CIBIC-plus, memantine-treated group compared with placebo ([3]; by week 12, LOCF and OC): statistically significant improvement
